Laboratory results reported in ChEMBL document CHEMBL4364286, “Structure-Guided Design, Synthesis, and Biological Evaluation of (2-(1H-Indol-3-yl)-1H-imidazol-4-yl)(3,4,5-trimethoxyphenyl) Methanone (ABI-231) Analogues Targeting the Colchicine Binding Site in Tubulin” (J Med Chem, 2019).
The source made the active and inactive calls. No cut-off for these calls is given here.

Columns and labels:
A-375 [1] = assay: Antiproliferative activity against human A375 cells after 72 hrs by MTT assay; format: functional, cell-based; details: A-375, 72 h, read-out: IC50
M14 = assay: Antiproliferative activity against human M14 cells after 72 hrs by MTT assay; format: functional, cell-based; details: M14, 72 h
WM164 = assay: Antiproliferative activity against human WM164 cells after 72 hrs by MTT assay; format: functional, cell-based; details: WM164, 72 h
Tubulin (Bos taurus) = Tubulin (Bos taurus) (UniProt Q6B856+Q862L2+Q862F3); assay: Inhibition of bovine brain tubulin polymerization at 10 uM measured at time interval of 1 mins for 20 mins by spectrophotometric analysis
Tubulin (Homo sapiens) [2] = target: T1, Tubulin (Homo sapiens) (UniProt P68371+Q9H4B7+P0DPH7+P68366+Q13509+Q71U36+P04350+Q3ZCM7+P07437+P68363+Q9BQE3+Q6PEY2+Q13885+Q9BVA1+Q9BUF5); assay: Disruption of microtubule network in human WM164 cells assessed as microtubule fragmentation at 100 nM after 18 hrs by DAPI staining based fluorescence confocal microscopic method; format: cell-based
Tubulin (Homo sapiens) [3] = target: T1, Tubulin (Homo sapiens); assay: Disruption of microtubule network in human WM164 cells assessed as microtubule disassembly at 100 nM after 18 hrs by DAPI staining based fluorescence confocal microscopic method; format: cell-based
A-375 [4] = assay: Inhibition of anchorage-dependent colony formation in human A375 cells assessed as decrease in colony number at 5 nM after 12 days by crystal violet-staining based assay relative to control; format: functional; details: A-375, 288 h
A-375 [5] = assay: Antimigratory activity in human A375 cells assessed as wound closure at 5 nM after 22 hrs by scratch migration assay (reference value: 60.7 +/- 3.5%); format: functional
A-375 [6] = assay: Antimigratory activity in human A375 cells assessed as wound closure at 25 nM after 22 hrs by scratch migration assay (reference value: 60.7 +/- 3.5%); format: functional
RPMI-7951 = assay: Antimigratory activity in human RPMI7951 cells assessed as wound closure at 25 nM after 18 hrs by scratch migration assay (reference value: 71.8 +/- 1.8%); format: functional
[7] = Half-life in CD-1 mouse liver microsomes in presence of NADPH regenerating system measured up to 4 hrs by UPLC-MS analysis; format: ADME, Microsome
[8] = Intrinsic clearance in CD-1 mouse liver microsomes in presence of NADPH regenerating system measured up to 4 hrs by UPLC-MS analysis; format: ADME, Microsome; details: read-out: CLH
[9] = Half-life in rat liver microsomes pre-incubated for 15 mins followed by addition of NADPH regenerating system by LC-MS analysis; format: ADME, Microsome
[10] = Intrinsic clearance in rat liver microsomes pre-incubated for 15 mins followed by addition of NADPH regenerating system by LC-MS analysis; format: ADME, Microsome; details: read-out: CLH
[11] = Half-life in human liver microsomes in presence of NADPH regenerating system; format: ADME, Microsome
[12] = Intrinsic clearance in human liver microsomes in presence of NADPH regenerating system; format: ADME, Microsome; details: read-out: CLH
[13] = Toxicity in ip dosed ICR mouse assessed as maximum tolerated dose; format: organism-based; details: in vivo
A-375 [14] = assay: Antitumor activity against human A375 cells xenografted in nude mouse assessed as tumor growth inhibition at 15 mg/kg, ip administered once daily for 14 days and measured after 20 days by caliper method relative to control; format: functional; details: A-375, ip, read-out: TGI
A-375 [15] = assay: Antitumor activity against human A375 cells xenografted in nude mouse assessed as tumor growth inhibition at 30 mg/kg, ip administered once daily for 14 days and measured after 20 days by caliper method relative to control; format: functional; details: A-375, ip, read-out: TGI
A-375 [16] = assay: Antitumor activity against human A375 cells xenografted in nude mouse assessed as reduction in tumor weight at 15 mg/kg, ip administered once daily for 14 days relative to control; format: functional; parameters: scale not given: the % may be the effect or the level left
A-375 [17] = assay: Antitumor activity against human A375 cells xenografted in nude mouse assessed as reduction in tumor weight at 30 mg/kg, ip administered once daily for 14 days relative to control; format: functional; parameters: scale not given: the % may be the effect or the level left
B16-F10 = assay: Antimetastatic activity against mouse B16F10 cells xenografted in C57BL/6 mouse assessed as reduction in lung metastasis at 30 mg/kg, ip administered once daily for 2 weeks with 2 days rest after day 5 and measured after 15 days relative to control; format: functional; parameters: scale not given: the % may be the effect or the level left
[18] = Acute toxicity in nude mouse xenografted with human A375 cells assessed as injury to lung at 30 mg/kg, ip administered once daily for 14 days by hematoxylin and eosin staining-based assay; format: organism-based; details: in vivo, 336 h
[19] = Acute toxicity in nude mouse xenografted with human A375 cells assessed as injury to lung at 15 mg/kg, ip administered once daily for 14 days by hematoxylin and eosin staining-based assay; format: organism-based; details: in vivo, 336 h
[20] = Acute toxicity in nude mouse xenografted with human A375 cells assessed as injury to spleen at 15 mg/kg, ip administered once daily for 14 days by hematoxylin and eosin staining-based assay; format: organism-based; details: in vivo, 336 h
[21] = Acute toxicity in nude mouse xenografted with human A375 cells assessed as injury to liver at 15 mg/kg, ip administered once daily for 14 days by hematoxylin and eosin staining-based assay; format: organism-based; details: in vivo, 336 h
[22] = Acute toxicity in nude mouse xenografted with human A375 cells assessed as injury to kidney at 15 mg/kg, ip administered once daily for 14 days by hematoxylin and eosin staining-based assay; format: organism-based; details: in vivo, 336 h
[23] = Acute toxicity in nude mouse xenografted with human A375 cells assessed as injury to heart at 15 mg/kg, ip administered once daily for 14 days by hematoxylin and eosin staining-based assay; format: organism-based; details: in vivo, 336 h
[24] = Acute toxicity in nude mouse xenografted with human A375 cells assessed as injury to spleen at 30 mg/kg, ip administered once daily for 14 days by hematoxylin and eosin staining-based assay; format: organism-based; details: in vivo, 336 h
[25] = Acute toxicity in nude mouse xenografted with human A375 cells assessed as injury to liver at 30 mg/kg, ip administered once daily for 14 days by hematoxylin and eosin staining-based assay; format: organism-based; details: in vivo, 336 h
[26] = Acute toxicity in nude mouse xenografted with human A375 cells assessed as injury to kidney at 30 mg/kg, ip administered once daily for 14 days by hematoxylin and eosin staining-based assay; format: organism-based; details: in vivo, 336 h
[27] = Acute toxicity in nude mouse xenografted with human A375 cells assessed as injury to heart at 30 mg/kg, ip administered once daily for 14 days by hematoxylin and eosin staining-based assay; format: organism-based; details: in vivo, 336 h
[28] = Acute toxicity in C57BL/6 mouse xenografted with mouse B16F10 cells assessed as injury to lung at 30 mg/kg, ip administered once daily for 2 weeks with 2 days rest after day 5 and measured after 15 days by hematoxylin and eosin staining-based assay; format: organism-based; details: in vivo, 360 h
[29] = Acute toxicity in C57BL/6 mouse xenografted with mouse B16F10 cells assessed as injury to spleen at 30 mg/kg, ip administered once daily for 2 weeks with 2 days rest after day 5 and measured after 15 days by hematoxylin and eosin staining-based assay; format: organism-based; details: in vivo, 360 h
[30] = Acute toxicity in C57BL/6 mouse xenografted with mouse B16F10 cells assessed as injury to liver at 30 mg/kg, ip administered once daily for 2 weeks with 2 days rest after day 5 and measured after 15 days by hematoxylin and eosin staining-based assay; format: organism-based; details: in vivo, 360 h
[31] = Acute toxicity in C57BL/6 mouse xenografted with mouse B16F10 cells assessed as injury to kidney at 30 mg/kg, ip administered once daily for 2 weeks with 2 days rest after day 5 and measured after 15 days by hematoxylin and eosin staining-based assay; format: organism-based; details: in vivo, 360 h
[32] = Acute toxicity in C57BL/6 mouse xenografted with mouse B16F10 cells assessed as injury to heart at 30 mg/kg, ip administered once daily for 2 weeks with 2 days rest after day 5 and measured after 15 days by hematoxylin and eosin staining-based assay; format: organism-based; details: in vivo, 360 h
[33] = target: Sodium-dependent noradrenaline transporter (Homo sapiens, UniProt P23975); assay: Antagonist activity at human norepinephrine transporter at 1 uM; format: ADME
Chain of Sodium-dependent noradrenaline transporter (P23975 whole entry): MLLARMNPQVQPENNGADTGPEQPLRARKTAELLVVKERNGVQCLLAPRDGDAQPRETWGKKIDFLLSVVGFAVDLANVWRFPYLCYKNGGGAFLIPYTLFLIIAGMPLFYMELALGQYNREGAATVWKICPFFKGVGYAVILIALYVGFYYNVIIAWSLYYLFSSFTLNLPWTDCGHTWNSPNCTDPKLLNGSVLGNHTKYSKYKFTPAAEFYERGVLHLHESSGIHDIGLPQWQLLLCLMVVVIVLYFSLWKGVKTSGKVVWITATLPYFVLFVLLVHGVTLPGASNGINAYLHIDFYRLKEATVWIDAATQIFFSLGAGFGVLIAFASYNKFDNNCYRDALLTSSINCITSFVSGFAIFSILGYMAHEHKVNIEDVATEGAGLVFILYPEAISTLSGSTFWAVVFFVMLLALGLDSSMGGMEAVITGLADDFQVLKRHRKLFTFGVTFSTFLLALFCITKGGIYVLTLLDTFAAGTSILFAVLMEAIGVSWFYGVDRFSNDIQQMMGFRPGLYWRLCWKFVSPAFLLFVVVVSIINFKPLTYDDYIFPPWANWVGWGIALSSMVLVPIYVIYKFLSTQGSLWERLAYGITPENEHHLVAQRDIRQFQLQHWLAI

[34] = target: 5-hydroxytryptamine receptor 2B (Homo sapiens, UniProt P41595); assay: Antagonist activity at human HTR2B at 1 uM
Chain of 5-hydroxytryptamine receptor 2B (P41595 whole entry): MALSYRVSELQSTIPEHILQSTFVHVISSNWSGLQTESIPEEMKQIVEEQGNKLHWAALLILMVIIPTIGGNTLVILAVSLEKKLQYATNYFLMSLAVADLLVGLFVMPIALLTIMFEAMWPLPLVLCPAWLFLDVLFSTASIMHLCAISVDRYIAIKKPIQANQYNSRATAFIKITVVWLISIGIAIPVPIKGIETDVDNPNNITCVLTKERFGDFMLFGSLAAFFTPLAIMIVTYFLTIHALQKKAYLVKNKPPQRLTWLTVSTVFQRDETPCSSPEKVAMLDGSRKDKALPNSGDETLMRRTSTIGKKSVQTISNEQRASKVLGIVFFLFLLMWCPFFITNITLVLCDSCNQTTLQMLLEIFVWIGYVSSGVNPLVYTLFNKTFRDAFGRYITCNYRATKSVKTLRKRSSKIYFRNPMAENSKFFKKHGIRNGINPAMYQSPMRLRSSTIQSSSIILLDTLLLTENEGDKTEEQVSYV

PC-3 = assay: Antiproliferative activity against human PC3 cells; format: functional, cell-based
[35] = Antiproliferative activity against human PC3-TxR cells; format: functional, cell-based
[36] = Resistance index, ratio of IC50 for human PC3-TxR cells to IC50 for human PC3 cells; format: functional
DU-145 = assay: Antiproliferative activity against human DU145 cells; format: functional, cell-based
[37] = Antiproliferative activity against human DU145-TxR cells; format: functional, cell-based
[38] = Resistance index, ratio of IC50 for human DU145-TxR cells to IC50 for human DU145 cells; format: functional
[39] = Antitumor activity against human PC3-TxR cells xenografted in nude mouse assessed as tumor growth inhibition at 30 mg/kg administered every other day for 3 weeks relative to control; format: functional; details: 504 h, read-out: TGI
[40] = Antitumor activity against human PC3-TxR cells xenografted in nude mouse assessed as reduction in tumor weight at 30 mg/kg administered every other day for 3 weeks relative to control; format: functional; parameters: scale not given: the % may be the effect or the level left
[41] = Toxicity in nude mouse xenografted with human PC-3/TxR cells assessed as effect on body weight at 30 mg/kg administered every other day for 3 weeks; details: in vivo, 504 h

COc1cc(C(=O)c2c[nH]c(-c3cccc4[nH]ccc34)n2)cc(OC)c1OC
IC50 (A-375 [1]): 3.6 nM
IC50 (M14): 3.7 nM
IC50 (WM164): 1.6 nM
inhibition (Tubulin (Bos taurus)): Active
Activity (Tubulin (Homo sapiens) [2]): Active
Activity (Tubulin (Homo sapiens) [3]): Active
inhibition at 0.005 µM (A-375 [4]): 35.6%
Activity (A-375 [5]): 38.5%
Activity (A-375 [6]): 38.5%
Activity (RPMI-7951): 35%
half-life [7]: 302 min
CLint scaled [8]: 11.3 mL/min/kg
half-life [9]: 316 min
CLint scaled [10]: 8.9 mL/min/kg
half-life [11]: 403 min
CLint scaled [12]: 3.1 mL/min/kg
MTD [13]: ≤ 65 mg/kg
inhibition in vivo at 15 mg/kg (A-375 [14]): 82.3%
inhibition in vivo at 30 mg/kg (A-375 [15]): 90.6%
Activity (A-375 [16]): 67.3%
Activity (A-375 [17]): 70.1%
Activity (B16-F10): 80.9%
Activity [18]: Non-Toxic
Activity [19]: Non-Toxic
Activity [20]: Non-Toxic
Activity [21]: Non-Toxic
Activity [22]: Non-Toxic
Activity [23]: Non-Toxic
Activity [24]: Non-Toxic
Activity [25]: Non-Toxic
Activity [26]: Non-Toxic
Activity [27]: Non-Toxic
Activity [28]: Non-Toxic
Activity [29]: Non-Toxic
Activity [30]: Non-Toxic
Activity [31]: Non-Toxic
Activity [32]: Non-Toxic
Activity [33]: Active
Activity [34]: Active
IC50 (PC-3): 89.9 nM
IC50 [35]: 66.9 nM
Ratio IC50 [36]: 0.7
IC50 (DU-145): 169 nM
IC50 [37]: 379 nM
Ratio IC50 [38]: 2.2
inhibition in vivo at 30 mg/kg [39]: 83.8%
Activity [40]: 62.8%
Activity [41]: Non-Toxic
